Consider one compound from patent publication US20170333391A1, “METHOD FOR DELAYING THE ONSET OF PULMONARY FIBROSIS OR TREATING PULMONARY FIBROSIS” (EVERFRONT BIOTECH INC., priority 2016, published 2017).

One test deals with type I collagen. As to the kind of experiment: Type I collagen expression in TGF-β1-induced NHLF, western blotting (2-2). It is filed as cell-based, human. As to conditions: TGF-β1-only control group = 1. As to the method: (§1) Normal Human lung fibroblasts (NHLF) were seeded into 6 cm culture dishes at a density of 2×10^5 cells/dish, comprising a control group and six experimental groups (7 dishes in total). The cells were cultured until the next day, and then the mediums were removed. Each group was respectively treated under the following conditions to conduct follow-up experiments: • (1) Positive control group: cells were cultured in a FGM-2 medium containing 1% serum and TGF-β1 (5 ng/ml) for 36 hours; • (2) Group I: cells were firstly cultured in a FGM-2 medium containing 1% serum and TGF-β1 (5 ng/ml) for 12 hours, and then compound (1) was added into the medium to provide a final concentration of 15 μg/ml; thereafter, the cells were cultured for another 24 hours; • (3) Group II: cells were firstly cultured in a FGM-2 medium containing 1% serum and TGF-β1 (5 ng/ml) for 12 hours, and then compound (1) was added into the medium to provide a final concentration of 25 μg/ml; thereafter, the cells were cultured for another 24 hours; • (4) Group III: cells were firstly cultured in a FGM-2 medium containing 1% serum and TGF-β1 (5 ng/ml) for 12 hours, and then compound (1) was added into the medium to provide a final concentration of 35 μg/ml; thereafter, the cells were cultured for another 24 hours; • (5) Group IV: cells were firstly cultured in a FGM-2 medium containing 1% serum and TGF-β1 (5 ng/ml) for 12 hours, and then the Pirfenidone was added into the medium to provide a final concentration of 100 μg/ml; thereafter, the cells were cultured for another 24 hours; • (6) Group V: cells were firstly cultured in a FGM-2 medium containing 1% serum and TGF-β1 (5 ng/ml) for 12 hours, and then the Pirfenidone was added into the medium to provide a final concentration of 250 μg/ml; thereafter, the cells were cultured for another 24 hours; and • (7) Group VI: cells were firstly cultured in a FGM-2 medium containing 1% serum and TGF-β1 (5 ng/ml) for 12 hours, and then the Pirfenidone was added into the medium to provide a final concentration of 500 μg/ml; thereafter, the cells were cultured for another 24 hours.
(§2) Thereafter, the proteins in the cells of each group were extracted, and the expressions of type I collagen, BMP-7 protein and TGF-β protein in the NHLF cells of each group were measured with western blotting. The results of the control group served as the basis for calculating the relative expression levels of the other groups.
For orientation: A western blot detects proteins with antibodies after separation by electrophoresis.

A further test deals with TGF-β protein. As to the kind of experiment: TGF-β protein expression in TGF-β1-induced NHLF, western blotting (2-2). The format is cell-based, human. As to conditions: TGF-β1-only control group = 1. Here is the method: as §1, §2
The test system of test [1] is C57B/L6 mice injected with Bleomycin sulfate (inducer of pulmonary fibrosis). As to the kind of experiment: Lung tissue slice observation (H&E stain) in Bleomycin sulfate mice. Conditions: compared to oil group. The format is in vivo. Here is the method: 24 C57B/L6 mice (age: four weeks) were separated into four groups (6 mice in each group). Each group was respectively treated under the following conditions to conduct follow-up experiments: • (1) Control group (mice without pulmonary fibrosis; i.e., normal mice): 50 μl of PBS was administrated to each mouse by intratracheal injection, and then the mice were fed for 30 days; • (2) Oil group: 0.6 U/50 μl of Bleomycin sulfate (dissolved in PBS) was administrated to each mouse by intratracheal injection, and then 100 μl of olive oil was orally administrated to each mouse every day for 30 days; • (3) Low-dose group: 0.6 U/50 μl of Bleomycin sulfate (dissolved in PBS) was administrated to each mouse by intratracheal injection, and then compound (1) (10 mg/kg-body weight, prepared with olive oil to provide a final volume of 100 μl) was orally administrated to each mouse every day for 30 days; and • (4) High-dose group: 0.6 U/50 μl of Bleomycin sulfate (dissolved in PBS) was administrated to each mouse by intratracheal injection, and then compound (1) (50 mg/kg-body weight, prepared with olive oil to provide a final volume of 100 μl) was orally administrated to each mouse every day for 30 days.
After completing the measurement of the pulmonary function in Example 6, the mice were sacrificed. Pulmonary tissue samples were taken from the mice, and separated into two groups (each group comprised samples from the control group, oil group, low-dose group and high-dose group). One of the two groups was preserved at −20° C. for the follow-up experiment, and the other group was analyzed by hematoxylin-sosin stain (H&E stain).

Setting [2] is: Group I: TGF-β1 5 ng/ml 12 h, then compound (1) 15 μg/ml 24 h.
[3] abbreviates: Group II: TGF-β1 5 ng/ml 12 h, then compound (1) 25 μg/ml 24 h.
[4] abbreviates: Group III: TGF-β1 5 ng/ml 12 h, then compound (1) 35 μg/ml 24 h.
[5] abbreviates: High-dose group, compound (1) 50 mg/kg orally daily 30 days.
Where [6] appears, read: Low-dose group, compound (1) 10 mg/kg orally daily 30 days.

Regarding `CCCC=C1OC(=O)c2ccccc21` [compound (1)], the “Relative expression level (fold) Type I collagen” value with type I collagen (setting [2]) is 0.79 fold; in the test with type I collagen (setting [3]), 0.30 fold; in the test on type I collagen (setting [4]), 0.51 fold. Besides, the “Relative expression level (fold) TGF-β protein” value was found to be 0.81 fold in the test with TGF-β protein (setting [2]), 0.77 fold with TGF-β protein (setting [3]) and 0.58 fold in the test with TGF-β protein (setting [4]). Further, the “alveolar wall tissue thickness (H&E stain)” value in test [1] (setting [5]) and in test [1] (setting [6]) was “significantly thinner” in each case. Further, the “level of abnormal infiltration of pulmonary cells (H&E stain)” value in test [1] (setting [5]) and in test [1] (setting [6]) was “significantly less” throughout.
